This is an account of results in patent EP4692094A1 (Beijing Konruns Pharmaceutical Co., Ltd., priority 2023, dated 2024).

The target in one data set is T1, KAT6A (Homo sapiens, UniProt Q92794).
T1 construct: purchased active motife (Active Motif) 81223
Description: Enzymatic activity assay for KAT6A acetyltransferase (TR-FRET, acetylation of histone substrate H3). It counts as biochemical. Summed up:
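TR-FRET detection of biotinylated H3 acetylation by KAT6A with acetyl-CoA; compounds in 10-point 3-fold dilution (0.5% DMSO final) preincubated with enzyme 10 min at 25 °C, then 90 min reaction and 60 min Eu-antibody/ULight-SA detection at 25 °C. HTRF 665/615 ratio normalised to DMSO (0%) and top-dose control (100%); IC50 by nonlinear fit.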
In general terms: In TR-FRET formats the signal depends on donor and acceptor labels being close together.

Data set [1] can be described thus: In-vivo pharmacokinetic study in rats. The following applies: rat, plasma, po, intragastric administration, 5 mg/kg. The arrangement: species or system SD female rats. The protocol: 1.1 Instrument: high-performance liquid chromatograph: SHIMADZU LC-30AD; mass spectrum: AB SCIEX mass spectrometer Triple Quad 5500; all measured data were calculated and processed using Microsoft Excel, and relevant pharmacokinetic parameters were calculated using WinNonlin software. The main obtained kinetic parameters are Tmax, T1/2, Cmax, AUC0-24 h, and AUCinf. […] Sample injection amount: 1 µL.
1.2 Animals: three SD female rats were used. The body weight range was 180-300 g. After purchase, the rats were bred in the experimental animal center for two days for later use. The rats were fasted 12 h before administration and 4 h after administration, and given ad libitum access to water during the assay. Blood samples were taken at predetermined time points after intragastric administration.
1.3 Vehicle: 0.5% HPMC (hydroxypropyl methylcellulose) + 0.4% Tween80 + 99.1% water. Preparation of intragastric administration solution: The compound was precisely weighed, the vehicle was added, and then the drug was completely dissolved by ultrasonication at room temperature for 5 min and prepared into a 0.5 mg/mL solution. After the intragastric administration, blood samples were taken at 0.083 h, 0.25 h, 0.5 h, 1.0 h, 2.0 h, 4.0 h, 7.0 h, and 24 h. The blood collection mode is as follows: 0.2 mL of the jugular vein blood was collected, EDTA-K2 was used as an anticoagulation agent, the collected blood sample was transferred into a microcentrifuge tube containing the anticoagulation agent, and the tube was centrifuged at 4 °C and 4000 g for 5 min to separate the plasma. All plasma samples collected were stored at -75±15 °C until analysis.
The compound was precisely weighed and prepared into a standard curve working solution and a quality control working solution at different concentrations. The blank plasma was added and prepared into a plasma standard curve and a quality control sample. LC/MS/MS analysis was performed after pretreatment using a protein precipitation method, and then the concentration of the compounds described above in the plasma was measured. All measured data were collected and processed by the relevant software, and pharmacokinetic parameters were calculated using Winnonlin software. Table 9. Pharmacokinetic parameters of some compounds in the examples in rats

The target of another data set is T2, hERG channel (Homo sapiens, UniProt Q12809).
T2 construct: expressed in transfected cells; host or cells: HEK-293
T2 sequence (Q12809 whole entry): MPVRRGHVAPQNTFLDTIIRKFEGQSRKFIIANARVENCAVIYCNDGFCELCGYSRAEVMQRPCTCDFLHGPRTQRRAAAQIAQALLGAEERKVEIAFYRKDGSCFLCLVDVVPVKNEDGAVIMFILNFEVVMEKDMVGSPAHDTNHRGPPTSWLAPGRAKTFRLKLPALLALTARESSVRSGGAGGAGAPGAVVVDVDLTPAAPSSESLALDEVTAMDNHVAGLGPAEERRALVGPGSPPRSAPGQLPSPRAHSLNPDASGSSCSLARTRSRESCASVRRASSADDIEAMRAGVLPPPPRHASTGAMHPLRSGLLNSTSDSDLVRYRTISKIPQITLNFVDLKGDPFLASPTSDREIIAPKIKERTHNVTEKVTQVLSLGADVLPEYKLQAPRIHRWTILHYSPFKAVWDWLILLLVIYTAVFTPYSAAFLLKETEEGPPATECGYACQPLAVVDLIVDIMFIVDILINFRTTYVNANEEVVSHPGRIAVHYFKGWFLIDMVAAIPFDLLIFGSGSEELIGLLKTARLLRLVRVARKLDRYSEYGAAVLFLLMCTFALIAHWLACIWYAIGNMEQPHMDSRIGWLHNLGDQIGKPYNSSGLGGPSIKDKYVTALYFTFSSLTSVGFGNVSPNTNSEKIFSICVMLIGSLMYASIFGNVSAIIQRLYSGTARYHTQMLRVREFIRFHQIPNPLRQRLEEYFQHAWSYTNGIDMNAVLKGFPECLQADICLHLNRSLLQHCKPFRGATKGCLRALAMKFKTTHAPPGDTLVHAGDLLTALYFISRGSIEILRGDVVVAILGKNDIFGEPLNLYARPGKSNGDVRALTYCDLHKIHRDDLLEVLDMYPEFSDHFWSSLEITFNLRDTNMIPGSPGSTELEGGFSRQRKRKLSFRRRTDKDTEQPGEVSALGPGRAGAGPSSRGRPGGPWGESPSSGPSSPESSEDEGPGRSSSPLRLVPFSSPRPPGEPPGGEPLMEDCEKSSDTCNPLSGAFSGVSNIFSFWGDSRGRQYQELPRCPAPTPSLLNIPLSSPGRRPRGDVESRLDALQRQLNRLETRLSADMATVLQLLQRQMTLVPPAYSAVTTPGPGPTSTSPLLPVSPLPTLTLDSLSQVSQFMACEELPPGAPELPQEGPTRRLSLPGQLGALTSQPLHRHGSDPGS
Description: hERG channel assay (manual patch clamp). The class given is cell-based. The following applies: HEK-293 cell line stably expressing the hERG channel, room temperature. On the procedure: 1.1 Test methods: This experiment adopted a manual patch clamp technology to detect the blocking effect of the compounds on electric current in the HEK-293 cell line stably expressing the hERG channel, and the risk of the compounds on the inhibitory effect on the cardiac hERG potassium channel was evaluated by fitting a concentration-effect relationship.
1.2 Experimental procedures: The patch clamp operation was performed as follows: Firstly, a capillary glass tube was drawn into a recording electrode with a microelectrode drawing instrument. An electrode filled with the intracellular fluid was mounted on the microelectrode holder. Under an inverted microscope, a microelectrode manipulator was used to immerse the electrode in the extracellular fluid, and the electrode resistance (Rpip) was recorded. The electrode was then slowly brought into contact with the cell surface, and negative pressure was applied to form a GΩ seal. At this time, fast capacitance compensation was performed, and the application of negative pressure was continued to break the cell membrane, forming a whole-cell recording mode. Finally, slow capacitance compensation was performed, and experimental parameters such as series resistance (Rs) were recorded. No current leakage compensation was provided. Administration was started when the hERG current of the whole-cell record was stable. Each drug concentration was maintained for about 5 min (or until the current was stable) for action before the next concentration was measured. Multiple concentrations were measured for each test compound. The coverslip with cells applied thereon was placed in the recording chamber under the inverted microscope. Gravity perfusion was used to flow the blank control extracellular fluid and the working solutions of the test compounds sequentially from low to high concentrations over the cells in the recording chamber. A peristaltic pump was used for liquid exchange during recording. For each cell, the current detected in the compound-free extracellular fluid was used as its own control group. The test was independently repeated three times for each concentration. All electrophysiological experiments were performed at room temperature.
Data processing: First, the tail current (Peak tail currentcompound) after the action of each drug concentration was standardized with the tail current of the blank control (Peak tail currentcontrol), and then the inhibition rate corresponding to each drug concentration was calculated ( 1−(Peak tail currentcompound)/(Peak tail currentcontrol) [formula] ). Subsequently, the mean, standard deviation (SD), and standard error (SE) were calculated for the inhibition rate corresponding to each concentration. The data were represented by Mean ± SE. IC50 value calculation of the compounds and dose-effect curve fitting were performed using the GraphPad Prism software. The data obtained are shown in Table 12: Table 12. hERG channel assay results
(The hERG channel carries a current that helps repolarise heart muscle cells.)

T1 sequence (Q92794 whole entry): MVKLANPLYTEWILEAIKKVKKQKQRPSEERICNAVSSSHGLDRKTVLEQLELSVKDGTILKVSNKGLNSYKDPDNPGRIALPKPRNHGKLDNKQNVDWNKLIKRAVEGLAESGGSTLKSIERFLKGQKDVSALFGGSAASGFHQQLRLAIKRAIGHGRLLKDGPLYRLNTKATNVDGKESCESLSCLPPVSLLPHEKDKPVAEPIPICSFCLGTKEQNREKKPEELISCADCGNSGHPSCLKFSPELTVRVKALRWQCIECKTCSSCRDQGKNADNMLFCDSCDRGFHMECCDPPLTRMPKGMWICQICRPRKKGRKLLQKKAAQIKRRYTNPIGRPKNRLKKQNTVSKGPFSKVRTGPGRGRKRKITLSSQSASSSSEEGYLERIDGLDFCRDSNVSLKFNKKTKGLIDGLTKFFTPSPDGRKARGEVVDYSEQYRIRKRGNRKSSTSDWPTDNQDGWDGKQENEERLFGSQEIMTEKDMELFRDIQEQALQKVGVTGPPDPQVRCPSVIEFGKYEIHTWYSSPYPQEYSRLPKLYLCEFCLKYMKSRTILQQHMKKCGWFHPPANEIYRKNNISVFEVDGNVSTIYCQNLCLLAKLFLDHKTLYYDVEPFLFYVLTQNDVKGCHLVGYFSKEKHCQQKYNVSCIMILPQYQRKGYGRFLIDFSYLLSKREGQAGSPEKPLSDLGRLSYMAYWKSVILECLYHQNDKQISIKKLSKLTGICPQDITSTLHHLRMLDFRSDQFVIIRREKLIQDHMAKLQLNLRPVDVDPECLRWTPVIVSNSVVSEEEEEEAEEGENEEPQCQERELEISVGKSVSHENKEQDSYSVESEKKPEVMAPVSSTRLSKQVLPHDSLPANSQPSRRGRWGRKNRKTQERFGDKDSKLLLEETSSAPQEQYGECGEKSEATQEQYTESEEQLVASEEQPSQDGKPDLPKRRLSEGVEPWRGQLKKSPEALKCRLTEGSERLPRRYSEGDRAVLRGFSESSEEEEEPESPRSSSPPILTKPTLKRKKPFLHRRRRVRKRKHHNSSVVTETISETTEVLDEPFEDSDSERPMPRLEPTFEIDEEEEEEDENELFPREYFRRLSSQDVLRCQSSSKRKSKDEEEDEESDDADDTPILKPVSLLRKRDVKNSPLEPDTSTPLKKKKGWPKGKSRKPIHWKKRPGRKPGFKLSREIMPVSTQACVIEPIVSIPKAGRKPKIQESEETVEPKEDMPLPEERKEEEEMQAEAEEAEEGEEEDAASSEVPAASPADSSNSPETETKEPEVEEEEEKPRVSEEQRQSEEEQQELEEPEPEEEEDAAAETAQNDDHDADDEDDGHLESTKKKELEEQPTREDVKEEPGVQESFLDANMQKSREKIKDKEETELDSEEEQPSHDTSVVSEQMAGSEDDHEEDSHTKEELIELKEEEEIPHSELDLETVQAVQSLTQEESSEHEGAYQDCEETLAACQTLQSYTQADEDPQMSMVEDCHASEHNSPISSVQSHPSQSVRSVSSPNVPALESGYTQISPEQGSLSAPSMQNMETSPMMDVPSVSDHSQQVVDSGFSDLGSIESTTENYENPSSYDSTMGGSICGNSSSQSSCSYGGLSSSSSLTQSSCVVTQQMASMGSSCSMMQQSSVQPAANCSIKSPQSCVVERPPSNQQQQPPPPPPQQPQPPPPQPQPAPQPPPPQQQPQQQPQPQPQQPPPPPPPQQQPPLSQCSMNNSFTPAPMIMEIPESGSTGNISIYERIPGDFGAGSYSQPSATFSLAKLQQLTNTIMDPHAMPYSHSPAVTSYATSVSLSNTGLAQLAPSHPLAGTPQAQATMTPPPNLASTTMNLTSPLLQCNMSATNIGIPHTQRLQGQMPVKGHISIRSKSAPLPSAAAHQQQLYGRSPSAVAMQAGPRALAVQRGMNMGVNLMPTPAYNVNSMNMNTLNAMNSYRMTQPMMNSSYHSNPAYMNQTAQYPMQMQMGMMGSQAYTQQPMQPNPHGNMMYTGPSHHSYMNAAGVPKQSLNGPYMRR

Take `COc1cc2c(cc1S(=O)(=O)Nc1noc3cc(Cn4cccn4)nc(OC)c13)CCCO2` [Example 76, N-(6-((1H-Pyrazol-1-yl)methyl)-4-methoxyisoxazolo[4,5-c]pyridin-3-yl)-7-methoxy-3,4-dihydro-1H-benzopyran-6-sulfonamide]: at KAT6A, it took 1.05 nM to reach half-maximal inhibition (IC50). For the same compound, in data set [1], the AUC(0-inf) (in general, total exposure, with the tail of the curve extrapolated) amounted to 162 µg·h/mL; the Cmax (in general, the peak of the concentration-time curve) worked out at 14.4 µg/mL; the Tmax (in general, the time from dosing to the highest level) came to 2.33 h. Also, in data set [1] (read-out: AUC0-24h), the AUC(0-t) at 24 h was determined as 158 µg·h/mL.

As for `COc1cc2c(cc1S(=O)(=O)Nc1noc3cc(Cn4cccn4)nc(OC)c13)OCC2` [Example 59, N-(6-((1H-Pyrazol-1-yl)methyl)-4-methoxyisoxazolo[4,5-c]pyridin-3-yl)-5-methoxy-2,3-dihydrobenzofuran-6-sulfonamide], the IC50 – broadly, the midpoint of a concentration-inhibition curve – against KAT6A stood at 0.95 nM. The IC50 on hERG channel was more than 30000 nM. In data set [1] (female, SD), the AUC(0-inf) came to 167 µg·h/mL, the concentration peaked (Cmax) at 16.5 µg/mL and the Tmax turned out to be 1.17 h. Also, the AUC(0-t) in data set [1] (female, SD, read-out: AUC0-24h) was determined as 166 µg·h/mL.

`COc1nc(Cn2cccn2)cc2onc(NS(=O)(=O)c3cccc4c3OCCO4)c12` [Example 4, N-(6-((1H-Pyrazol-1-yl)methyl)-4-methoxyisoxazolo[4,5-c]pyridin-3-yl)-2,3-dihydrobenzo[b][1,4]dioxine-5-sulfonamide] displayed a concentration for half-maximal inhibition (IC50) against KAT6A of 1.51 nM. Moreover, the 50% inhibitory concentration (IC50) against hERG channel is more than 30000 nM. In data set [1] (female, SD), the AUC(0-inf) worked out at 12 µg·h/mL, the highest concentration (Cmax) was 5.96 µg/mL and the Tmax came out at 0.25 h. Besides, the AUC(0-t) in data set [1] (female, SD, read-out: AUC0-24h) was found to be 11.8 µg·h/mL.

Consider `COc1cc2c(cc1S(=O)(=O)Nc1noc3cc(Cn4cccn4)nc(OC)c13)CCCC2` [Example 2, N-(6-((1H-Pyrazol-1-yl)methyl)-4-methoxyisoxazolo[4,5-c]pyridin-3-yl)-3-methoxy-5,6,7,8-tetrahydronaphthalene-2-sulfonamide], for which half-maximal inhibition against KAT6A (IC50) required 0.72 nM. The compound further gave an IC50 against hERG channel of more than 30000 nM. For the same compound, in data set [1] (female, SD), the half-life (usually how long it takes for the measured level to halve) was not above 10 h, the AUC(0-inf) is 71.5 µg·h/mL, the peak level (Cmax) was 4.41 µg/mL and the Tmax worked out at 6 h. Moreover, the AUC(0-t) in data set [1] (female, SD, read-out: AUC0-24h) was 64.8 µg·h/mL.

On KAT6A, `COc1ccc2ccoc2c1S(=O)(=O)Nc1noc2cc(Cn3cccn3)nc(OC)c12` [Example 10, N-(6-((1H-Pyrazol-1-yl)methyl)-4-methoxyisoxazolo[4,5-c]pyridin-3-yl)-6-methoxybenzofuran-7-sulfonamide] yielded a 50% inhibitory concentration (IC50) of 0.38 nM. The half-inhibitory concentration (IC50) against hERG channel was more than 30000 nM. For the same compound, in data set [1] (female, SD), the area under the curve AUC(0-inf) is 74.3 µg·h/mL, the highest level (Cmax) was 10.5 µg/mL and the Tmax was determined as 0.5 h. Further, in data set [1] (female, SD, read-out: AUC0-24h), the AUC(0-t) is 72.3 µg·h/mL.

On KAT6A, `COc1ccc2c(c1S(=O)(=O)Nc1noc3cc(Cn4cccn4)nc(OC)c13)OCC2` [Example 9, N-(6-((1H-Pyrazol-1-yl)methyl)-4-methoxyisoxazolo[4,5-c]pyridin-3-yl)-6-methoxy-2,3-dihydrobenzofuran-7-sulfonamide] returned an IC50 of 0.92 nM. The IC50 on hERG channel is more than 30000 nM. Moreover, in data set [1] (female, SD), the AUC(0-inf) was determined as 215 µg·h/mL, the concentration peaked (Cmax) at 22.5 µg/mL and the Tmax was found to be 1.83 h. Also, the AUC(0-t) in data set [1] (female, SD, read-out: AUC0-24h) worked out at 215 µg·h/mL.

As for `COc1nc(Cn2cccn2)cc2onc(NS(=O)(=O)c3cccc4ccoc34)c12` [Example 5, N-(6-((1H-Pyrazol-1-yl)methyl)-4-methoxyisoxazolo[4,5-c]pyridin-3-yl)benzofuran-7-sulfonamide], the IC50 at KAT6A was found to be 4.52 nM. This compound came in with an IC50 against hERG channel of more than 30000 nM. In data set [1] (female, SD), the half-life was not above 10 h, the AUC(0-inf) was found to be 19.7 µg·h/mL, the highest level (Cmax) was 5.96 µg/mL and the Tmax was determined as 0.25 h. The AUC(0-t) in data set [1] (female, SD, read-out: AUC0-24h) worked out at 18.5 µg·h/mL.
